Laboratory results: US7115592B2, “Phosphonate substituted pyrimidine compounds and methods for therapy” (priority 2003, dated 2006)
≈ marks a conversion by molar mass, not a printed value. Marks after values point to notes of the source that are not given here.

Key:
HIV = assay: microbe, parasite or virus in culture; assay type: cell-based; details: for EC50: Human immunodeficiency virus 1, HIV type not specified, read-out: inhibitory against HIV at
[1] = tested on: MSV-induced tumor cell formation; assay: Inhibitory activity against MSV-induced tumor cell formation in newborn NMRI mice; assay type: in vivo; details: for % survivors on day 12 / % tumor free on day 12 / Mean day of animal death / Mean day of tumor initiation: virus i.m. at day 1; for tumor formation: at 50 and 20 mg/kg; for order of antiviral efficacy: among the 5-cyano, 5-chloro and 5-methyl derivatives
Description: The 5-cyano (Example 8), 5-methyl (Example 5) and 5-chloro-2,4-diamino-6-[2-(phosphonomethoxy)ethoxy]pyrimidine were also evaluated for their antiretroviral activity in MSV-infected newborn NMRI mice in comparison with PMEA and (R)-PMPA. […] At 5 mg/kg, 90% of mice were free from tumor formation in the presence of 5-methyl derivative, compared with 70% and 10% in the presence of PMEA and (R)-PMPA. […] This phenomenon was also seen with PMEA at 50 and 20 mg/kg, but not with (R)-PMPA at 50 mg/kg.
Inhibitory activity of test compounds against MSV-induced tumor cell formation in newborn NMRI mice

HIV-1 = assay: microbe, parasite or virus in culture; assay type: cell-based; details: Human immunodeficiency virus 1; read-out: EC50 against HIV-1
HIV-2 = assay: microbe, parasite or virus in culture; assay type: cell-based; details: Human immunodeficiency virus 2; read-out: EC50 against HIV-2
MSV = assay: Antiviral activity against MSV in cell culture; assay type: cell-based, murine (MSV); details: Mus musculus; in vitro; read-out: inhibitory against MSV (EC50)
VZV = assay: Anti-VZV activity; assay type: cell-based
[2] = Cytostatic activity in CEM cell cultures; details: human

Row | SMILES | melting point | Mean day of animal death ([1]; 5 mg/kg i.p. at days 1-5) | Mean day of tumor initiation ([1]; 5 mg/kg i.p. at days 1-5) | % survivors on day 12 ([1]; 20 mg/kg i.p. at days 1-5) | Mean day of animal death ([1]; 20 mg/kg i.p. at days 1-5) | Mean day of tumor initiation ([1]; 20 mg/kg i.p. at days 1-5) | Mean day of animal death ([1]; 50 mg/kg i.p. at days 1-5) | Mean day of tumor initiation ([1]; 50 mg/kg i.p. at days 1-5) | further results
1 | N#CCc1c(N)nc(N)nc1OCCOCP(=O)(O)O | 258 to 259 °C (dec.) |  |  |  |  |  |  |  | 
2 | CCOC(=O)Cc1c(N)nc(N)nc1OCCOCP(=O)(O)O | 199 to 200 °C |  |  |  |  |  |  |  | 
3 | Nc1nc(N)c(C2CC2)c(OCCOCP(=O)(O)O)n1 | 255 to 256 °C |  |  |  |  |  |  |  | 
4 | Nc1nc(N)c(Cc2ccccc2)c(OCCOCP(=O)(O)O)n1 (hydrate or solvate) | 241 to 242 °C |  |  |  |  |  |  |  | 
5 | Nc1nc(N)c(CC(=O)O)c(OCCOCP(=O)(O)O)n1 (hydrate or solvate) | 228 to 229 °C |  |  |  |  |  |  |  | 
6 | Nc1nc(N)c(-c2ccccc2)c(OCCOCP(=O)(O)O)n1 (hydrate or solvate) | 230 to 231 °C |  |  |  |  |  |  |  | 
7 | Nc1nc(N)c(C=O)c(OCCOCP(=O)(O)O)n1 (hydrate or solvate) [Example 9, 5-Formyl-2,4-diamino-6-[2-(phosphonomethoxy)ethoxy]pyrimidine] | 225 to 227 °C |  |  |  |  |  |  |  | 
8 | Nc1cc(OCCOCP(=O)(O)O)nc(N)n1 [5-unsubstituted compound, 2,4-diamino-6-[2-(phosphonomethoxy)ethoxy]pyrimidine, reference compound] |  |  |  |  |  |  |  |  | anti-HIV activity less potent than anti-MSV activity (HIV; ratio of anti-HIV to anti-MSV potency): 20 fold
9 | C[C@H](Cn1cnc2c(N)ncnc21)OCP(=O)(O)O [(R)-PMPA] |  | > 12 days | 10.5 ± 2.12 days | 100% | > 12 days | > 12 days | > 12 days | > 12 days | % survivors on day 12 ([1]; 5 mg/kg i.p. at days 1-5): 100%; % tumor free on day 12 ([1]; 5 mg/kg i.p. at days 1-5): 10%; % tumor free on day 12 ([1]; 20 mg/kg i.p. at days 1-5): 100%; % survivors on day 12 ([1]; 50 mg/kg i.p. at days 1-5): 100%; % tumor free on day 12 ([1]; 50 mg/kg i.p. at days 1-5): 100%; tumor formation [1]: completely prevented
10 | Cc1c(N)nc(N)nc1OCCOCP(=O)(O)O [Example 5, 5-Methyl-2,4-diamino-6-[2-(phosphonomethoxy)ethoxy]pyrimidine] |  | > 12 days | 8.0 days | 100% | > 12 days | > 12 days | 10.1 ± 1.10^b day | > 12 days | EC50 (HIV-1): 0.065 mg/L (≈ 0.234 µM); EC50 (HIV-2): 0.065 mg/L (≈ 0.234 µM); EC50 (MSV): 0.04 to 0.06 mg/L (≈ 0.144 to 0.216 µM); anti-VZV activity (VZV): moderate anti-VZV activity; % survivors on day 12 ([1]; 5 mg/kg i.p. at days 1-5): 100%; % tumor free on day 12 ([1]; 5 mg/kg i.p. at days 1-5): 90%; % tumor free on day 12 ([1]; 20 mg/kg i.p. at days 1-5): 100%; % tumor free on day 12 ([1]; 50 mg/kg i.p. at days 1-5): 100%; Mean day of animal death ([1]; 50 mg/kg i.p. at days 1-5, listed as 5-methyl-2,4-diamino-6-[2-(phosphonomethoxy)ethoxy]pyrimidine): 10.1 days; order of antiviral efficacy [1]: most effective agent; tumor formation [1]: completely prevented; CC50 [2]: 1.3 to 4.1 mg/L (≈ 4.67 to 14.7 µM)
11 | Nc1nc(N)c(Cl)c(OCCOCP(=O)(O)O)n1 [Example 5-Cl, 5-chloro-2,4-diamino-6-[2-(phosphonomethoxy)ethoxy]pyrimidine] |  | 11.5 ± 0.69 days | 6.70 ± 0.80 days | (80%) | 11.8 ± 0.50 days | 7.44 ± 1.42 days | > 12 days | 8.76 ± 1.86 days | % survivors on day 12 ([1]; 5 mg/kg i.p. at days 1-5): (45%); % tumor free on day 12 ([1]; 20 mg/kg i.p. at days 1-5): 10%; % survivors on day 12 ([1]; 50 mg/kg i.p. at days 1-5): 100%; % tumor free on day 12 ([1]; 50 mg/kg i.p. at days 1-5): 15%
12 | N#Cc1c(N)nc(N)nc1OCCOCP(=O)(O)O [Example 8, 5-Cyano-2,4-diamino-6-[2-(phosphonomethoxy)ethoxy]pyrimidine] |  | 10.9 ± 0.57 days | 6.40 ± 0.70 days | (60%) | 11.5 ± 0.58 days | 7.20 ± 1.03 days | > 12 days | 8.20 ± 1.62 days | EC50 (HIV): 0.8 to 3.3 mg/L (≈ 2.77 to 11.4 µM); EC50 (MSV): 2.7 to 6 mg/L (≈ 9.34 to 20.7 µM); % survivors on day 12 ([1]; 50 mg/kg i.p. at days 1-5): 100%; order of antiviral efficacy [1]: least effective agent
13 | Nc1nc(N)c(C=O)c(OCCOCP(=O)(O)O)n1 [Example 9, 5-Formyl-2,4-diamino-6-[2-(phosphonomethoxy)ethoxy]pyrimidine] |  |  |  |  |  |  |  |  | EC50 (HIV): 0.8 to 3.3 mg/L (≈ 2.74 to 11.3 µM); EC50 (MSV): 2.7 to 6 mg/L (≈ 9.24 to 20.5 µM)
14 | Nc1ncnc2c1ncn2CCOCP(=O)(O)O [PMEA, 9-(2-phosphonylmethoxyethyl)adenine] |  | > 12 days | 9.33 ± 0.58 days | 90% | 9.0 days | > 12 days | 8.80 ± 0.63^b day | > 12 days | % survivors on day 12 ([1]; 5 mg/kg i.p. at days 1-5): 100%; % tumor free on day 12 ([1]; 5 mg/kg i.p. at days 1-5): 70%; % tumor free on day 12 ([1]; 20 mg/kg i.p. at days 1-5): 100%; % tumor free on day 12 ([1]; 50 mg/kg i.p. at days 1-5): 100%; tumor formation [1]: completely prevented; CC50 [2]: 11 mg/L (≈ 40.3 µM)
